Measurements published in patent US20070249725A1, “Pharmaceutical formulations of sympathetic antagonist for the treatment of chronic muscle pain” (priority 2006, published 2007).
Structures can show the parent of a compound that is named as a salt.

Test: Adverse events in subjects treated by trigger point injection (Example 1)
Assay type: in vivo, human
Method: A total of 326 male and female subjects, approximately 15 to 85 years old with pain of 4-72 month duration were treated with various doses of phenoxybenzamine. If a potential subject had pain that was clearly muscular and clearly not due to arthritis, nerve root compression or other extramuscular cause, the subject was considered a candidate for phenoxybenzamine hydrochloride injection. Trigger points were identified by palpation. A monopolar EMG needle was then inserted into the trigger point. Another monopolar EMG needle was inserted into a nearby nontender fibers of the same muscle. […] The treatment was repeated in up to 10-12 trigger points per treatment session. Subjects could return for up to 6 treatment sessions, depending on the extent of their pain. The initial treatment was with a dose of 25 mg of phenoxybenzamine hydrochloride in an injection volume of 2 ml. […] For 318 subjects, data were available for analysis for the doses of phenoxybenzamine hydrochloride used, efficacy and incidence of serious adverse events.
The frequencies of other adverse events occurring in the first 199 subjects treated, including the first 87 subjects treated with the 3 mg dose, are given in the table below. Results with an additional 131 subjects treated with the 3 mg dose have been similar.

[1] = 3 mg, multiple injections, N 87
[2] = 10-12.5 mg, multiple injections, N 89
[3] = 10-25 mg, single injection, N 23

## CC(COc1ccccc1)N(CCCl)Cc1ccccc1 (stereo not drawn) [Phenoxybenzamine Hydrochloride, phenoxybenzamine hydrochloride]
3 mg dose
  frequencies of adverse events in additional 131 subjects compared with Table 3: similar
[1]
  Bruising at injection site, % of subjects: (1%)
  Bruising at injection site, number of subjects: 1
  Burning, % of subjects: (0%)
  Cold sensation, % of subjects: (0%)
  Diaphoresis, % of subjects: (0%)
  Diarrhea, % of subjects: (0%)
  Dizziness, % of subjects: (3%)
  Dizziness, number of subjects: 3
  Dry mouth, % of subjects: (0%)
  Dysphagia, % of subjects: (0%)
  Dyspnea, % of subjects: (1%)
  Dyspnea, number of subjects: 1
  Epistaxis, % of subjects: (0%)
  Fatigue, % of subjects: (3%)
  Fatigue, number of subjects: 3
  Fever, % of subjects: (0%)
  Flu syndrome, % of subjects: (1%)
  Flu syndrome, number of subjects: 1
  Hair disorder, % of subjects: (1%)
  Hair disorder, number of subjects: 1
  Headache, % of subjects: (3%)
  Headache, number of subjects: 3
  Hypesthesia, % of subjects: (0%)
  Injection site drainage, % of subjects: (0%)
  Injection site soreness, % of subjects: (21%)
  Injection site soreness, number of subjects: 18
  Injection site swelling, % of subjects: 23%
  Injection site swelling, number of subjects: 20
  Lethargy, % of subjects: (1%)
  Lethargy, number of subjects: 1
  Lightheadedness, % of subjects: (0%)
  Nasal disorder, % of subjects: (0%)
  Nausea, % of subjects: (2%)
  Nausea, number of subjects: 2
  Pain, % of subjects: (5%)
  Pain, number of subjects: 4
  Palpitations, % of subjects: (0%)
  Paresthesia, % of subjects: (0%)
  Pharyngitis, % of subjects: (0%)
  Pruritis, % of subjects: (0%)
  Rash, % of subjects: 0%
  Stiffness, % of subjects: (1%)
  Stiffness, number of subjects: 1
  Swelling, % of subjects: (0%)
  Syncope, % of subjects: (0%)
  Tachycardia, % of subjects: (0%)
  Taste disorder, % of subjects: (1%)
  Taste disorder, number of subjects: 1
  Tremor, % of subjects: (1%)
  Tremor, number of subjects: 1
  Vomiting, % of subjects: (0%)
[2]
  Bruising at injection site, % of subjects: (11%)
  Bruising at injection site, number of subjects: 10
  Burning, % of subjects: (3%)
  Burning, number of subjects: 3
  Cold sensation, % of subjects: (1%)
  Cold sensation, number of subjects: 1
  Diaphoresis, % of subjects: (1%)
  Diaphoresis, number of subjects: 1
  Diarrhea, % of subjects: (2%)
  Diarrhea, number of subjects: 2
  Dizziness, % of subjects: (20%)
  Dizziness, number of subjects: 18
  Dry mouth, % of subjects: (1%)
  Dry mouth, number of subjects: 1
  Dysphagia, % of subjects: (0%)
  Dyspnea, % of subjects: (3%)
  Dyspnea, number of subjects: 3
  Epistaxis, % of subjects: (0%)
  Fatigue, % of subjects: (4%)
  Fatigue, number of subjects: 4
  Fever, % of subjects: (1%)
  Fever, number of subjects: 1
  Flu syndrome, % of subjects: (1%)
  Flu syndrome, number of subjects: 1
  Hair disorder, % of subjects: (0%)
  Headache, % of subjects: (10%)
  Headache, number of subjects: 9
  Hypesthesia, % of subjects: (4%)
  Hypesthesia, number of subjects: 4
  Injection site drainage, % of subjects: (2%)
  Injection site drainage, number of subjects: 2
  Injection site soreness, % of subjects: (37%)
  Injection site soreness, number of subjects: 33
  Injection site swelling, % of subjects: 45%
  Injection site swelling, number of subjects: 40
  Lethargy, % of subjects: (0%)
  Lightheadedness, % of subjects: (13%)
  Lightheadedness, number of subjects: 12
  Nasal disorder, % of subjects: (2%)
  Nasal disorder, number of subjects: 2
  Nausea, % of subjects: (18%)
  Nausea, number of subjects: 16
  Pain, % of subjects: (0%)
  Palpitations, % of subjects: (1%)
  Palpitations, number of subjects: 1
  Paresthesia, % of subjects: (3%)
  Paresthesia, number of subjects: 3
  Pharyngitis, % of subjects: (1%)
  Pharyngitis, number of subjects: 1
  Pruritis, % of subjects: (1%)
  Pruritis, number of subjects: 1
  Rash, % of subjects: 2%
  Rash, number of subjects: 2
  Stiffness, % of subjects: (2%)
  Stiffness, number of subjects: 2
  Swelling, % of subjects: (2%)
  Swelling, number of subjects: 2
  Syncope, % of subjects: (7%)
  Syncope, number of subjects: 6
  Tachycardia, % of subjects: (0%)
  Taste disorder, % of subjects: (2%)
  Taste disorder, number of subjects: 2
  Tremor, % of subjects: (1%)
  Tremor, number of subjects: 1
  Vomiting, % of subjects: (8%)
  Vomiting, number of subjects: 7
[3]
  Bruising at injection site, % of subjects: (0%)
  Burning, % of subjects: (4%)
